Source: BindingDB's records for PubMed 9536032 (Sibia Neurosciences, 1998)
“And” between values parts separate entries of the source, which are not always exact repeats. Equal entries are not always repeated.

Legend:
Glutamate receptor 3 [1] = biological target: Glutamate receptor 3 (Homo sapiens, UniProt P42263)
Glutamate receptor 3 [2] = biological target: Glutamate receptor 3 (Rattus norvegicus, UniProt P19492)
Sequence of Glutamate receptor 3 (Rattus norvegicus, UniProt P19492) (P19492 whole entry): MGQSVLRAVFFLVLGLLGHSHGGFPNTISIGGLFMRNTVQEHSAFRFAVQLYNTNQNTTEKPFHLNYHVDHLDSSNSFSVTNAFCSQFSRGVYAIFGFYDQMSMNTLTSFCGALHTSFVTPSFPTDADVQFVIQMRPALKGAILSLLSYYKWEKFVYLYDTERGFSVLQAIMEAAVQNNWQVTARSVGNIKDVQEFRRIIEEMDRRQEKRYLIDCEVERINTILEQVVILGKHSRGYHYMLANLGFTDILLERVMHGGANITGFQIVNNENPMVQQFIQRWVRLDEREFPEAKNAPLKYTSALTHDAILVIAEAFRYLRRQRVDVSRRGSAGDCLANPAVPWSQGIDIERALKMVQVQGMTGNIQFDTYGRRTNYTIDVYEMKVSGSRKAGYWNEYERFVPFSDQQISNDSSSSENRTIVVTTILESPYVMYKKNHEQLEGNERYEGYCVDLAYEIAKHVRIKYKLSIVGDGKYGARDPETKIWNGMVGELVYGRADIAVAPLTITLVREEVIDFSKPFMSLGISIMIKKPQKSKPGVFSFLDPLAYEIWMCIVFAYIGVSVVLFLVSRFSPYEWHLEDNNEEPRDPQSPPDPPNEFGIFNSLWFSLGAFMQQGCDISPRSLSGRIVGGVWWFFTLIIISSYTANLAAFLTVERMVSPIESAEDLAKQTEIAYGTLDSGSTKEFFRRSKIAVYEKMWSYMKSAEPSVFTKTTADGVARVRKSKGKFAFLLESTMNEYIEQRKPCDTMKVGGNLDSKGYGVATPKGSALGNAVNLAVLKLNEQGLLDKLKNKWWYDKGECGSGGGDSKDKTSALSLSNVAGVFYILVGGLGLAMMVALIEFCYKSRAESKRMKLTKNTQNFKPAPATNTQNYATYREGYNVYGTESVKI

Sequence of Glutamate receptor 3 (Homo sapiens, UniProt P42263) (P42263 whole entry): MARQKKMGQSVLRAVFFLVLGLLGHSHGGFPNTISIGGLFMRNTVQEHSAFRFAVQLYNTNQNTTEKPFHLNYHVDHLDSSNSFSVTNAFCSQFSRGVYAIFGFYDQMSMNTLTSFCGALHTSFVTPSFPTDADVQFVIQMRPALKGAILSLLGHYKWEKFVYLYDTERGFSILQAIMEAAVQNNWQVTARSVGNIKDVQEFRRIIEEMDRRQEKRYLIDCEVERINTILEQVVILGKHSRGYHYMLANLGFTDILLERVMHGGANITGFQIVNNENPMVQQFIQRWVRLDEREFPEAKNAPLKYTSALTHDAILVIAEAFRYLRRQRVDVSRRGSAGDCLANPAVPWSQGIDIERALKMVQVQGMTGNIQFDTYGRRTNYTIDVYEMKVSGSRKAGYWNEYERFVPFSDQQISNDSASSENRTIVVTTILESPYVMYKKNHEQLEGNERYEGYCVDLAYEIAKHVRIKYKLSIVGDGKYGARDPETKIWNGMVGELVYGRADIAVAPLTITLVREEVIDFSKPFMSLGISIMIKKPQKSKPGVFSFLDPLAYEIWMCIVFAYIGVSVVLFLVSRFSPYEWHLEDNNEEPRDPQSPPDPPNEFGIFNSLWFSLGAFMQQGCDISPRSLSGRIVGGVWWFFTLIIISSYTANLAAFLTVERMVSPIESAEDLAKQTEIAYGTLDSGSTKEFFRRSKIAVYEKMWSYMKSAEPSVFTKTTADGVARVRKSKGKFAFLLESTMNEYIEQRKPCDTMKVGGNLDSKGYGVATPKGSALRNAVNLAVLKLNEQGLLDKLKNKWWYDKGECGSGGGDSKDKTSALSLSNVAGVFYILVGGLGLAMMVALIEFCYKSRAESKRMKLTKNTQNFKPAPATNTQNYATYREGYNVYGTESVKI

`C/C(=C\C=C\[C@@H](C)C(=O)O)[C@H]1CN[C@H](C(=O)O)[C@H]1CC(=O)O` was tested, and the Ki (Glutamate receptor 3 [1]) was 2770 nM and 4590 nM and the Ki (Glutamate receptor 3 [2]) was 3540 nM.
For `CN1Cc2c(S(=O)(=O)N(C)C)cc3c(c2C1)NC(=O)C3N=O` (centres undefined), the Ki (Glutamate receptor 3 [1]) was 1430 nM and > 10000 nM and 8450 nM and the Ki (Glutamate receptor 3 [2]) was 782 nM.
With `Cc1onc(OCC(=O)O)c1CC(N)C(=O)O` (centres undefined) [2-Amino-3-(3-carboxymethoxy-5-methyl-isoxazol-4-yl)-propionic acid(AMOA)] the Ki (Glutamate receptor 3 [1]) was > 10000 nM and the Ki (Glutamate receptor 3 [2]) was > 10000 nM.
In the case of `N#Cc1cc2nc(O)c(O)nc2cc1[N+](=O)[O-]` [7-Cyano-3-hydroxy-6-nitro-quinoxalin-2-ol anion], the Ki (Glutamate receptor 3 [2]) is reported as 470 nM.
With `N[C@@H](Cn1cc(F)c(=O)[nH]c1=O)C(=O)O` [(S)-5-Fluorowillardiine] the Ki (Glutamate receptor 3 [2]) was 18 nM.
`NC(CCC(=O)NCS(=O)(=O)O)C(=O)O` (centres undefined) [CAS_90237-02-8] was tested, and the Ki (Glutamate receptor 3 [1]) was > 10000 nM and the Ki (Glutamate receptor 3 [2]) was > 10000 nM.
With `O=C1N=c2cc(N(O)O)c(-n3ccnc3)cc2=NC1=O` [CAS_3035216] the Ki (Glutamate receptor 3 [1]) was 630 nM and 2450 nM and 1960 nM and the Ki (Glutamate receptor 3 [2]) was 407 nM.
`C=C(C)[C@H]1CN[C@H](C(=O)O)[C@H]1CC(=O)O` [Digensaeure] was tested, and the Ki (Glutamate receptor 3 [1]) was 2630 nM and 8050 nM.
`CC(C)[C@H](NC(=O)[C@H](CCCCN)NC(=O)[C@@H](Cc1c[nH]c2ccccc12)NC(=O)[C@H](Cc1ccc(O)cc1)NC(=O)[C@H](CS)NC(=O)[C@H](N)Cc1ccc2ccccc2c1)C(=O)N[C@@H](CS)C(=O)N[C@@H](Cc1ccc2ccccc2c1)C(N)=O` [Dnal,Cys,Tyr,DTrp,Lys,Val,Cys,Nal-nh2] was tested, and the Ki (Glutamate receptor 3 [1]) was 494 nM.
With `CC1=NN=C(c2ccc(N)cc2)c2cc3c(cc2C1)OCO3` [GYKI-52466] the Ki (Glutamate receptor 3 [1]) was > 10000 nM and the Ki (Glutamate receptor 3 [2]) was > 10000 nM.
With `O=C1N=c2cc([N+](=O)[O-])c([N+](=O)[O-])cc2=NC1=O` [NSC_3140] the Ki (Glutamate receptor 3 [1]) was 2090 nM and 1660 nM.
In the case of `O=C1N=c2c3c(ccc2=C1NO)C([N+](=O)[O-])CCC3` (centres undefined) [NSC_5311098], the Ki (Glutamate receptor 3 [1]) is reported as > 10000 nM and the Ki (Glutamate receptor 3 [2]) is reported as > 10000 nM.
